Experiments:
Assay in all cases: KinomeScan
Type in all cases: binding
Conditions in all cases: read-out: % Ctrl @ 10000 nM
AURKB = molecular target: T1, AURKB (Homo sapiens, UniProt Q96GD4)
T1 construct: host or cells: E. coli host derived from BL21
How it was run: (§1)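 An active-site competition format was used, with T7 phage displaying the kinase and affinity beads carrying immobilized ligand. Blocking buffer contained SeaBlock, 1% BSA, 0.05% Tween 20 and 1 mM DTT.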

BRSK1 = molecular target: T2, BRSK1 (Homo sapiens, UniProt Q8TDC3)
T2 construct: host or cells: E. coli host derived from BL21
How it was run: as §1

CDC2L1 = molecular target: T3, CDC2L1 (Homo sapiens, UniProt P21127)
T3 construct: host or cells: T7 phage in E. coli host derived from BL21
How it was run: as §1

CSNK1G3 = molecular target: T4, CSNK1G3 (Homo sapiens, UniProt Q9Y6M4)
T4 construct: purchased Ambit Biosciences Corp (KinomeScan); host or cells: T7 phage in E. coli host derived from BL21
How it was run: as §1

CSNK2A1 = molecular target: T5, CSNK2A1 (Homo sapiens, UniProt P68400)
T5 construct: purchased Ambit Biosciences Corp (KinomeScan); host or cells: T7 phage in E. coli host derived from BL21
How it was run: as §1

CSNK2A2 = molecular target: T6, CSNK2A2 (Homo sapiens, UniProt P19784)
T6 construct: purchased Ambit Biosciences Corp (KinomeScan); host or cells: T7 phage in E. coli host derived from BL21
How it was run: as §1

DDR1 = molecular target: T7, DDR1 (Homo sapiens, UniProt Q08345)
T7 construct: purchased Ambit Biosciences Corp (KinomeScan); host or cells: T7 phage in E. coli host derived from BL21
How it was run: as §1

EPHA5 = molecular target: T8, EPHA5 (Homo sapiens, UniProt P54756)
T8 construct: purchased Ambit Biosciences Corp; host or cells: T7 phage in E. coli host derived from BL21
How it was run: as §1

FES = molecular target: T9, FES (Homo sapiens, UniProt P07332)
T9 construct: host or cells: T7 phage in E. coli host derived from BL21
How it was run: as §1

FGFR3 = molecular target: T10, FGFR3 (Homo sapiens, UniProt P22607)
T10 construct: host or cells: T7 phage in E. coli host derived from BL21
How it was run: as §1

FGFR3(G697C) = molecular target: T11, FGFR3(G697C) (Homo sapiens, UniProt P22607, G697C)
T11 construct: host or cells: T7 phage in E. coli host derived from BL21
How it was run: as §1

FLT1 = molecular target: T12, FLT1 (Homo sapiens, UniProt P17948)
T12 construct: host or cells: T7 phage in E. coli host derived from BL21
How it was run: as §1

FLT3(D835H) = molecular target: T13, FLT3(D835H) (Homo sapiens, UniProt P36888, D835H)
T13 construct: host or cells: T7 phage in E. coli host derived from BL21
How it was run: as §1

FLT3(K663Q) = molecular target: T14, FLT3(K663Q) (Homo sapiens, UniProt P36888, K663Q)
T14 construct: host or cells: T7 phage in E. coli host derived from BL21
How it was run: as §1

HIPK1 = molecular target: T15, HIPK1 (Homo sapiens, UniProt Q86Z02)
T15 construct: host or cells: T7 phage in E. coli host derived from BL21
How it was run: as §1

IRAK3 = molecular target: T16, IRAK3 (Homo sapiens, UniProt Q9Y616)
T16 construct: host or cells: T7 phage grown in E. coli host derived from BL21
How it was run: as §1

LATS2 = molecular target: T17, LATS2 (Homo sapiens, UniProt Q9NRM7)
T17 construct: host or cells: T7 phage grown in E. coli host derived from BL21
How it was run: as §1

LKB1 = molecular target: T18, LKB1 (Homo sapiens, UniProt Q15831)
T18 construct: host or cells: E. coli host derived from the BL21 strain, infected with T7 phage
How it was run: as §1

MAP3K4 = molecular target: T19, MAP3K4 (Homo sapiens, UniProt Q9Y6R4)
T19 construct: host or cells: E. coli host derived from the BL21 strain, infected with T7 phage
How it was run: as §1

MARK2 = molecular target: T20, MARK2 (Homo sapiens, UniProt Q7KZI7)
T20 construct: host or cells: E. coli host derived from the BL21 strain, infected with T7 phage
How it was run: as §1

MST1R = molecular target: T21, MST1R (Homo sapiens, UniProt Q04912)
T21 construct: host or cells: T7 phage grown in E. coli host derived from BL21
How it was run: as §1

NEK2 = molecular target: T22, NEK2 (Homo sapiens, UniProt P51955)
T22 construct: host or cells: T7 phage grown in E. coli host derived from BL21
How it was run: as §1

PAK1 = molecular target: T23, PAK1 (Homo sapiens, UniProt Q13153)
T23 construct: host or cells: E. coli host derived from BL21, infected with T7 phage
How it was run: as §1

PAK6 = molecular target: T24, PAK6 (Homo sapiens, UniProt Q9NQU5)
T24 construct: host or cells: E. coli host derived from BL21, infected with T7 phage
How it was run: as §1

PIK3CB = molecular target: T25, PIK3CB (Homo sapiens, UniProt P42338)
T25 construct: host or cells: E. coli host derived from BL21, infected with T7 phage
How it was run: as §1

PIM1 = molecular target: T26, PIM1 (Homo sapiens, UniProt P11309)
T26 construct: host or cells: T7 phage in E. coli host derived from BL21
How it was run: as §1

PIP5K2B = molecular target: T27, PIP5K2B (Homo sapiens, UniProt P78356)
T27 construct: host or cells: T7 phage in E. coli host derived from BL21
How it was run: as §1

PLK1 = molecular target: T28, PLK1 (Homo sapiens, UniProt P53350)
T28 construct: host or cells: T7 phage in E. coli host derived from BL21
How it was run: as §1

SIK = molecular target: T29, SIK (Homo sapiens, UniProt P57059)
T29 construct: host or cells: T7 phage grown in E. coli (BL21-derived)
How it was run: as §1

SNARK = molecular target: T30, SNARK (Homo sapiens, UniProt Q9H093)
T30 construct: host or cells: T7 phage grown in E. coli (BL21-derived)
How it was run: as §1

TIE2 = molecular target: T31, TIE2 (Homo sapiens, UniProt Q02763)
T31 construct: host or cells: E. coli host derived from BL21, T7 phage
How it was run: as §1

[1] = molecular target: T32, TYK2(JH1domain-catalytic) (Homo sapiens, UniProt P29597)
T32 construct: TYK2(JH1domain-catalytic); host or cells: E. coli host derived from BL21, T7 phage
How it was run: as §1

VEGFR2 = molecular target: T33, VEGFR2 (Homo sapiens, UniProt P35968)
T33 construct: host or cells: E. coli host derived from BL21, T7 phage
How it was run: as §1

p38-alpha = molecular target: T34, p38-alpha (Homo sapiens, UniProt Q16539)
T34 construct: host or cells: E. coli host derived from BL21, infected with T7 phage
How it was run: as §1

T16 sequence (Q9Y616 whole entry): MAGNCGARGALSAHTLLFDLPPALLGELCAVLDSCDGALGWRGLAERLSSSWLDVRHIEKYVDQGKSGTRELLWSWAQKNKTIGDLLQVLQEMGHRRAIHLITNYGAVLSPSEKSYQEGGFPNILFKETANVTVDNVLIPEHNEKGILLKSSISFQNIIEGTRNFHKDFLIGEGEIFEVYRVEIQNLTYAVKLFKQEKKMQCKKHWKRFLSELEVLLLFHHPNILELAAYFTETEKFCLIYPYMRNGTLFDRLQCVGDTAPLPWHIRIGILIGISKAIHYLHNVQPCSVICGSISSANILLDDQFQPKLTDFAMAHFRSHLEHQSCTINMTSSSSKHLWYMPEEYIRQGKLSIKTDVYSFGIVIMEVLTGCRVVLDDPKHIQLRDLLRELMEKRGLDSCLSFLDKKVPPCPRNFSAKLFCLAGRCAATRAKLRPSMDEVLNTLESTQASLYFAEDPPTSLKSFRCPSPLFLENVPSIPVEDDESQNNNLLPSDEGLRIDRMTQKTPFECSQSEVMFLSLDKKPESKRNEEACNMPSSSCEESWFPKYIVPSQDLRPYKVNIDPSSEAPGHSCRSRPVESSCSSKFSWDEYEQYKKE
T18 sequence (Q15831 whole entry): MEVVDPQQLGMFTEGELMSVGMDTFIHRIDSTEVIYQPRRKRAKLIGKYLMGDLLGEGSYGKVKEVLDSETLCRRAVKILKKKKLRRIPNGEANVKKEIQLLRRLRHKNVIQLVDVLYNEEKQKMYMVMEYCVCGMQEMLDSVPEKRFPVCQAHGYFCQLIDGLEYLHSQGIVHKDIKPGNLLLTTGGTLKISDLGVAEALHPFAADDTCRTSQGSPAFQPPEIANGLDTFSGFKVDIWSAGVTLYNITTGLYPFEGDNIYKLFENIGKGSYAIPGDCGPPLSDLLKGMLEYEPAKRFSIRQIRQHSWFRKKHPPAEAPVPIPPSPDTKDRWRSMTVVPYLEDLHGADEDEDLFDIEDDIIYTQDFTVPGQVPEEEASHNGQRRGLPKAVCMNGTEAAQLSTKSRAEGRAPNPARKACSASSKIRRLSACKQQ
T27 sequence (P78356 whole entry): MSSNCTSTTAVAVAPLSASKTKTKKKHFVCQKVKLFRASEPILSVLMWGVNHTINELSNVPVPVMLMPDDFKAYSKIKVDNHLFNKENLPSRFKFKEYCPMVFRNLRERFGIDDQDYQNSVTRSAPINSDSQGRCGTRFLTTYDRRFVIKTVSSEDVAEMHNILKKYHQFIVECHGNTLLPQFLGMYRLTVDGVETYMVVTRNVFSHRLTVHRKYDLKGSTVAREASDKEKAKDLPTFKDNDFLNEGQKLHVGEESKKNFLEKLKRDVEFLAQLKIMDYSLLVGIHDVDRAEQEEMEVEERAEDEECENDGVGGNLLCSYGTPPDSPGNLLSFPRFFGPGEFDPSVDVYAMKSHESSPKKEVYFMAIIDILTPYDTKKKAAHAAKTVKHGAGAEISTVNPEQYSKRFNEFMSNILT
T26 sequence (P11309 whole entry): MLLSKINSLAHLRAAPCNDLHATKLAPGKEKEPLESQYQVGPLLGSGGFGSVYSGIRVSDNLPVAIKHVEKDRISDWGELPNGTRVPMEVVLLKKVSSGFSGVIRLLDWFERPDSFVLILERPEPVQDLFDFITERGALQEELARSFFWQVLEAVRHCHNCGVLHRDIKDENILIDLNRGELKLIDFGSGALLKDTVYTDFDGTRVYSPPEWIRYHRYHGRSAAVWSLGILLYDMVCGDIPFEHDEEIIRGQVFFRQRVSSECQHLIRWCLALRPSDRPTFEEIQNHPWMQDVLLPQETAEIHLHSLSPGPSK
T22 sequence (P51955 whole entry): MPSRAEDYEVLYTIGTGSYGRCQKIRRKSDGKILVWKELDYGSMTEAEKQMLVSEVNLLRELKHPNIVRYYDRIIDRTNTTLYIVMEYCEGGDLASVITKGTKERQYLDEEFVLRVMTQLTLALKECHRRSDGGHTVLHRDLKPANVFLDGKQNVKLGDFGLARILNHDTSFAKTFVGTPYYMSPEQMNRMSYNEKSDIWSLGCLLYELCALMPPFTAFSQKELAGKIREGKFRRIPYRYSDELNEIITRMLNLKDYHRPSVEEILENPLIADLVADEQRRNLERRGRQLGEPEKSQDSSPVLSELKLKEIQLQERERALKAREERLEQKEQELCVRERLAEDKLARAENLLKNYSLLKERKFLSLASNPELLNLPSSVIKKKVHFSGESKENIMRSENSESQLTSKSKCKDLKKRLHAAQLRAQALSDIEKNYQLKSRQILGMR
T23 sequence (Q13153 whole entry): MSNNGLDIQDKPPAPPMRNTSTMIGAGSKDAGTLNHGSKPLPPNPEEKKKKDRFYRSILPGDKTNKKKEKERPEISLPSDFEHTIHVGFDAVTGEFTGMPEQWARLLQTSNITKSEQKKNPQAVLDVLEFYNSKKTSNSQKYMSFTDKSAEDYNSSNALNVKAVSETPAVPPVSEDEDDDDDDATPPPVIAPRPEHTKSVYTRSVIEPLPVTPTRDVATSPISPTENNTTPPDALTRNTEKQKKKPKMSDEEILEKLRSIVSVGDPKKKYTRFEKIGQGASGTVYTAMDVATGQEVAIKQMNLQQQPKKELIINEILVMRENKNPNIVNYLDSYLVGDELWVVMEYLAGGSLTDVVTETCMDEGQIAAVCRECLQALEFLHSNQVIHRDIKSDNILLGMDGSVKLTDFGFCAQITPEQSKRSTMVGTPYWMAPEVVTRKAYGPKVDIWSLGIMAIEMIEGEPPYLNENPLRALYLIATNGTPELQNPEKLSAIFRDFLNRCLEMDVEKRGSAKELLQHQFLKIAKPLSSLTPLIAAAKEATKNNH
T34 sequence (Q16539 whole entry): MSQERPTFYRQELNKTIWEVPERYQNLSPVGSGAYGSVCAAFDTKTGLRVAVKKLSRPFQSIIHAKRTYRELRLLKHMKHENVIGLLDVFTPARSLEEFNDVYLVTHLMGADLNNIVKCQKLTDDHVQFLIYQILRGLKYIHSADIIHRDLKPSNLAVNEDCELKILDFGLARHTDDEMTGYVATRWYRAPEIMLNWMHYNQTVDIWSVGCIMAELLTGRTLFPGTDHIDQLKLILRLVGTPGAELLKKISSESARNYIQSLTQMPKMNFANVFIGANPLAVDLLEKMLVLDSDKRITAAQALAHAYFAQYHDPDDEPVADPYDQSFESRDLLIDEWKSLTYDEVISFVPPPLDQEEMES
T2 sequence (Q8TDC3 whole entry): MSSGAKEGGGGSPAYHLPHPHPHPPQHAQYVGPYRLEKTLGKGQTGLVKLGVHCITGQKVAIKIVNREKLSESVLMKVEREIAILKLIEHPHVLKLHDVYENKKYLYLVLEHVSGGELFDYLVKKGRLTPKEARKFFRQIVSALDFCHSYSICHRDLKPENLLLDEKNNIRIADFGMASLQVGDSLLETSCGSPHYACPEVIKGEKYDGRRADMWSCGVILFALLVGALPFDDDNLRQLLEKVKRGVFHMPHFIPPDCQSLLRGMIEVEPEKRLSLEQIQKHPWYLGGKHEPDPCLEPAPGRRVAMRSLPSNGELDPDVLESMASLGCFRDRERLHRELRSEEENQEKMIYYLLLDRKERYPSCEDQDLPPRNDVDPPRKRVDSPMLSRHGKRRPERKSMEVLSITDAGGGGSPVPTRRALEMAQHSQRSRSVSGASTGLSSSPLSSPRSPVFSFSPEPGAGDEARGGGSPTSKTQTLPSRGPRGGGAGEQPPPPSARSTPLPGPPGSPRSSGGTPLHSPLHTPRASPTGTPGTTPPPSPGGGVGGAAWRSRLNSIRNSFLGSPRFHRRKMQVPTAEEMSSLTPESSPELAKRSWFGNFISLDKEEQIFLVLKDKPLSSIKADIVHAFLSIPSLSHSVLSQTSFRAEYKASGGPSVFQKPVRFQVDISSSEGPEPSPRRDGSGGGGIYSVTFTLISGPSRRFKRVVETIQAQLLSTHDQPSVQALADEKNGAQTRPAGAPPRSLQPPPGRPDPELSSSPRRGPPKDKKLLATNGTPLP
T5 sequence (P68400 whole entry): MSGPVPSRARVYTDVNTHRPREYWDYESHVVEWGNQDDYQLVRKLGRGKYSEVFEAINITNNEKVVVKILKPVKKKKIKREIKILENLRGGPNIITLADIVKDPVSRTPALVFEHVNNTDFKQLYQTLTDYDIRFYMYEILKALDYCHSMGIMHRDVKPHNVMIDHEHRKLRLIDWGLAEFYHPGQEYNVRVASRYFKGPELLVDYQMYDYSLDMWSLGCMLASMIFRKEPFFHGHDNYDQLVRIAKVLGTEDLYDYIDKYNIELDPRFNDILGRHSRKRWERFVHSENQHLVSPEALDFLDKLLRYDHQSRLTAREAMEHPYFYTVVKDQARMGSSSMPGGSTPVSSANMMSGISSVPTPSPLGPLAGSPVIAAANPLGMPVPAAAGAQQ
T1 sequence (Q96GD4 whole entry): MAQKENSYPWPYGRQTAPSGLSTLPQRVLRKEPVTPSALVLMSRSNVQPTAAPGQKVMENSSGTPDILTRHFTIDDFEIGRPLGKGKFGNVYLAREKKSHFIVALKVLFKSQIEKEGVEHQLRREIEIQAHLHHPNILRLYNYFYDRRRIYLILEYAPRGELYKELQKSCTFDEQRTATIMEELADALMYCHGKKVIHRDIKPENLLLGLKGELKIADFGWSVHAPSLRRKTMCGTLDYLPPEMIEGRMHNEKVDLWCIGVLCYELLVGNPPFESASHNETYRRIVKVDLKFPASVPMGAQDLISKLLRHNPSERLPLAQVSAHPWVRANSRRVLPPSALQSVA
T6 sequence (P19784 whole entry): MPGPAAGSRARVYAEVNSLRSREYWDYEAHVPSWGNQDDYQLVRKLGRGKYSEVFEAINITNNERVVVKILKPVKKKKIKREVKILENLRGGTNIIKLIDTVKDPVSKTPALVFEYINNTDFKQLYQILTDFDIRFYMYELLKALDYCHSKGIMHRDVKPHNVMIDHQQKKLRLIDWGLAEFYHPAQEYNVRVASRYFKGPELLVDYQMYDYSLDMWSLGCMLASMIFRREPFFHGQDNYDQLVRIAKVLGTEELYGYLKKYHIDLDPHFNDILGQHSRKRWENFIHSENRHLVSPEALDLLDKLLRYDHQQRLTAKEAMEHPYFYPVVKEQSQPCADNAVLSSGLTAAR

C#Cc1cccc(Nc2ncnc3cc(OC)c(OCCCN4CCOCC4)cc23)c1 [NRC-2694, N-(3-ethynylphenyl)-7-methoxy-6-[3-(4-morpholinyl)propoxy]-4-quinazolinamine]
remaining binding at 10 µM (AURKB): 56% | remaining binding at 10 µM (BRSK1): 53% | remaining binding at 10 µM (CDC2L1): 42% | remaining binding at 10 µM (CSNK1G3): 61% | remaining binding at 10 µM (CSNK2A1): 56% | remaining binding at 10 µM (CSNK2A2): 52% | remaining binding at 10 µM (DDR1): 39% | remaining binding at 10 µM (EPHA5): 86% | remaining binding at 10 µM (FES): 72% | remaining binding at 10 µM (FGFR3): 100% | remaining binding at 10 µM (FGFR3(G697C)): 82% | remaining binding at 10 µM (FLT1): 64% | remaining binding at 10 µM (FLT3(D835H)): 8.1% | remaining binding at 10 µM (FLT3(K663Q)): 56% | remaining binding at 10 µM (HIPK1): 70% | remaining binding at 10 µM (IRAK3): 25% | remaining binding at 10 µM (LATS2): 93% | remaining binding at 10 µM (LKB1): 69% | remaining binding at 10 µM (MAP3K4): 53% | remaining binding at 10 µM (MARK2): 70% | remaining binding at 10 µM (MST1R): 94% | remaining binding at 10 µM (NEK2): 63% | remaining binding at 10 µM (PAK1): 74% | remaining binding at 10 µM (PAK6): 70% | remaining binding at 10 µM (PIK3CB): 100% | remaining binding at 10 µM (PIM1): 39% | remaining binding at 10 µM (PIP5K2B): 49% | remaining binding at 10 µM (PLK1): 81% | remaining binding at 10 µM (SIK): 53% | remaining binding at 10 µM (SNARK): 19% | remaining binding at 10 µM (TIE2): 76% | remaining binding at 10 µM [1]: 97% | remaining binding at 10 µM (VEGFR2): 95% | remaining binding at 10 µM (p38-alpha): 89%
